Measured values as given in BindingDB's records for doi:10.7270/Q2NS0SBF (Burnham Center For Chemical Genomics, 2010).

Target: Mu-type opioid receptor (Homo sapiens, UniProt P35372)
Assay: mu opioid receptor activators, image-based, SAR follow-up (AID 2352)

Sequence of Mu-type opioid receptor (P35372 whole entry): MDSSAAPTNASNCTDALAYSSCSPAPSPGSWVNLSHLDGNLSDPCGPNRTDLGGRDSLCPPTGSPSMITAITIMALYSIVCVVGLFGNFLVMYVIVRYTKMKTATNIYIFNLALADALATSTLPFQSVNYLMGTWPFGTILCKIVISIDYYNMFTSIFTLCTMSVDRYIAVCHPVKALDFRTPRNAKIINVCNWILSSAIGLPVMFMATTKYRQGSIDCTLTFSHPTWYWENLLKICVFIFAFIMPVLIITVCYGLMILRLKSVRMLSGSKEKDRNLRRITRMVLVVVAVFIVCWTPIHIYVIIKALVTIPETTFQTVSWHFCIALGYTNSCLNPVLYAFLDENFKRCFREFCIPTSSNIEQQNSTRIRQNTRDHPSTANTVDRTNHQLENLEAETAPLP

## CCC(N=Nc1ccnc2cc(Cl)ccc12)c1ccc(O)cc1 (configuration not stated) [4-[1-[2-(7-chloroquinolin-4-yl)hydrazinyl]propylidene]cyclohexa-2,5-dien-1-one]
  EC50: 25.3 µM

## Oc1ccc(CN=Nc2ccnc3cc(Cl)ccc23)cc1O [(4Z)-4-[[2-(7-chloroquinolin-4-yl)hydrazinyl]methylidene]-2-hydroxycyclohexa-2,5-dien-1-one]
  EC50: > 32 µM
